Source: US20180110824A1, “Macrocyclic Modulators of the Ghrelin Receptor” (Ocera Therapeutics, Inc., priority 2016, published 2018)
Like-named read-outs stand apart in the source and are kept apart here.

Tests used:
[1] = molecular target: T1, human growth hormone secretagogue receptor (hGHS-R1a) (Homo sapiens, UniProt Q92847); assay: Competitive radioligand binding assay (ghrelin receptor), [125I]-ghrelin displacement on GHS-R/HEK 293 membranes; settings: read-out: Ki
T1 construct: purchased PerkinElmer BioSignal #RBHGHSM; host or cells: HEK-293, stably transfected
T1 sequence (Q92847 whole entry): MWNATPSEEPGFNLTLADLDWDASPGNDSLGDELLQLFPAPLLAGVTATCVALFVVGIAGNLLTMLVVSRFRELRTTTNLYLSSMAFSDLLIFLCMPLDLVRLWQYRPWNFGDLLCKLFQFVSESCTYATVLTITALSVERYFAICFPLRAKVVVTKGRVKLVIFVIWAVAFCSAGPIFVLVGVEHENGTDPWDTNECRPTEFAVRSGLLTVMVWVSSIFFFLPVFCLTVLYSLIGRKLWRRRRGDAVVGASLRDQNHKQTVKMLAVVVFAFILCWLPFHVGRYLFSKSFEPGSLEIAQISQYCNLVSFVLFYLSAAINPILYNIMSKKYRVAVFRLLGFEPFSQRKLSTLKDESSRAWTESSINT
Description: The competitive binding assay at the human growth hormone secretagogue receptor (hGHS-R1a) was carried out analogously to assays described in the literature.
Multiscreen Harvest plates-GF/C (Millipore, #MAHFC1H60) • 4. […] Bottom seal (Millipore, #MATAH0P00) • 7. […] Binding Buffer: 25 mM Hepes (pH 7.4), 1 mM CaCl2, 5 mM MgCl2, 2.5 mM EDTA, 0.4% BSA
Competition experiments were performed in a 300 μl filtration assay format. • 1. 220 μL of membranes diluted in binding buffer • 2. 40 μL of compound diluted in binding buffer • 3.
Compounds were provided frozen on dry ice at a stock concentration of 10 mM diluted in 100% DMSO and stored at −80° C. until the day of testing. On the test day, compounds were allowed to thaw at rt O/N and then diluted in assay buffer according to the desired test concentrations. Under these conditions, the maximal final DMSO concentration in the assay was 0.1%.
Plates were sealed with TopSeal-A, vortexed gently and incubated at rt for 30 min. The reaction was arrested by filtering samples through Multiscreen Harvest plates (pre-soaked in 0.5% polyethyleneimine) using a Tomtec Harvester, washed 9 times with 500 μL of cold 50 mM Tris-HCl (pH 7.4, 4° C.), and then plates were air-dried in a fumehood 30 min. A bottom seal was applied to the plates prior to the addition of 25 μL of MicroScint-0 to each well. […] Results were expressed as counts per minute (cpm).
Data were analyzed by GraphPad Prism (GraphPad Software, San Diego, Calif.) using […] non-linear regression analysis.
where total and non-specific binding represent the cpm obtained in the absence or presence of 1 μM ghrelin, respectively.
• 1. Binding performed on membranes prepared from HEK293 expressing the transfected, cloned human ghrelin receptor (hGHS-R1a). • 2. […] Ghrelin (unlabeled, 1 μM) was used to determine non-specific binding. • 4.

[2] = molecular target: T2, human ghrelin receptor (hGHS-R1a) (Homo sapiens, UniProt Q92847); assay: Aequorin functional assay (ghrelin receptor), CHO-K1 cells co-expressing Gα16 and aequorin; type: cell-based; settings: Table 4; functional (agonist) activity; TFA salts unless otherwise noted; read-out: EC50
T2 construct: host or cells: CHO-K1 co-expressing Gα16 and mitochondrially targeted aequorin
T2 sequence (Q92847 whole entry): as above
Description: This cell line is typically constructed by transfection of the human ghrelin receptor into CHO-K1 cells co-expressing Gα16 and the mitochondrially targeted Aequorin (Ref #ES-WT-A5). • 1. […] Assay buffer: DMEM (Dulbecco's Modified Eagles Medium) containing 0.1% BSA (bovine serum albumin; pH 7.0). • 3. Coelenterazine (Molecular Probes, Leiden, The Netherlands). • Final test concentrations (N=8) for compounds of the invention: 10, 1, 0.3, 0.1, 0.03, 0.01, 0.003, 0.001 μM.
Stock solutions of compounds (10 mM in 100% DMSO) were provided frozen on dry ice and stored at −20° C. prior to use. […] Assay plates were then prepared by appropriate dilution in DMEM medium containing 0.1% BSA. Under these conditions, the maximal final DMSO concentration in the assay was <0.6%.
AequoScreen™ cells were collected from culture plates with Ca^2+ and Mg^2+-free phosphate buffered saline (PBS) supplemented with 5 mM EDTA, pelleted for 2 min at 1000×g re-suspended in DMEM—Ham's F12 containing 0.1% BSA at a density of 5×10^6 cells/mL, and incubated O/N at rt in the presence of 5 μM coelenterazine. After loading, cells were diluted with assay buffer to a concentration of 5×10^5 cells/mL.
For agonist testing, 50 μL of the cell suspension was mixed with 50 μL of the appropriate concentration of test compound or ghrelin (reference agonist) in 96-well plates (duplicate samples). Ghrelin (reference agonist) was tested at several concentrations concurrently with the test compounds in order to validate the experiment. The emission of light resulting from receptor activation in response to ghrelin or test compounds was recorded using the Hamamatsu FDSS 6000 reader (Hamamatsu Photonics K.K., Japan).
Results were expressed as Relative Light Units (RLU). […] EC50, Hill slope and % Emax values are reported.
• 1. Assay performed on CHO-K1 cells expressing the transfected, cloned human ghrelin receptor (hGHS-R1a) and Gα16. • 2. Suspended cells incubated O/N with coelenterazine. • 3. Stimulation of hGHS-R1a activates Gα16, causing […] Ca2+ release which ultimately leads to the oxidation of coelenterazine and the emission of a quantitative luminescent signal. • 4. Ghrelin was used as the positive control. • 5.

[3] = Table 3B, binding activity at the human ghrelin receptor
[4] = Table 4, TFA salts unless otherwise noted
[5] = Binding activity at the human ghrelin receptor, [125I]-ghrelin displacement

CCC(C)[C@@H]1NC[C@@H](C)Oc2ccccc2CCCNC(=O)[C@H](Cc2cccc(Cl)c2)NC(=O)C2(CCCC2)NC1=O (stereo partly shown) [368a]
Ki [1, 3]: 10 to 100 nM | Ki [1, 4]: 0.1 to 10 nM | EC50 [2]: > 1000 nM

CC(C)[C@@H]1NCCOc2ccccc2CCCNC(=O)[C@@H](Cc2ccccc2)NC(=O)CN(C)C1=O [Compound 3]
Ki [1, 5]: 100 to 1000 nM | Ki [1, 4]: 100 to 1000 nM | EC50 [2]: 100 to 1000 nM

CCC(C)C1NCCOc2ccccc2CCCNC(=O)C(Cc2ccccc2)NC(=O)C(C)NC1=O (stereo not shown) [compound 2]
Ki [1, 5]: 100 to 1000 nM | Ki [1, 4]: 100 to 1000 nM | EC50 [2]: 100 to 1000 nM

CCC[C@@H]1NCCOc2ccccc2CCCNC(=O)[C@@H](Cc2ccccc2)NC(=O)CN(CC)C1=O [compound 5]
Ki [1, 5]: 100 to 1000 nM | Ki [1, 4]: 100 to 1000 nM | EC50 [2]: 100 to 1000 nM

CCC(C)[C@@H]1NC[C@@H](C)Oc2ccccc2CCCNC(=O)[C@@H](Cc2ccccc2)NC(=O)[C@@H](C)N(C)C1=O (stereo partly shown) [compound 35]
Ki [1, 5]: 10 to 100 nM | Ki [1, 4]: 10 to 100 nM | EC50 [2]: 1 to 100 nM

CCC(C)[C@@H]1NC[C@@H](C)Oc2ccccc2CCCNC(=O)[C@@H](Cc2ccccc2)NC(=O)[C@@H](C)N(C)C1=O (stereo partly shown) [compound 36]
Ki [1, 5]: 10 to 100 nM | EC50 [2]: 100 to 1000 nM

C[C@@H]1C(=O)N[C@H](Cc2ccc(F)cc2)C(=O)NCCCc2cc(F)ccc2OCCN[C@@H](C2CC2)C(=O)N1C [compound 355]
Ki [1, 3]: 10 to 100 nM

C[C@@H]1C(=O)N[C@H](Cc2ccc(F)cc2)C(=O)NCCCc2cc(C(F)(F)F)ccc2OCCN[C@@H](C2CC2)C(=O)N1C [compound 356]
Ki [1, 3]: 100 to 1000 nM

C[C@@H]1C(=O)N[C@H](Cc2ccc(F)cc2)C(=O)NCCCc2ccc(NS(C)(=O)=O)cc2OCCN[C@@H](C2CC2)C(=O)N1C [compound 357]
Ki [1, 3]: 100 to 1000 nM

CC[C@H](C)[C@@H]1NCCOc2ccccc2C(C)(C)CCNC(=O)[C@H](Cc2cccc(Cl)c2)NC(=O)C2(CCCC2)NC1=O [compound 359]
Ki [1, 3]: 100 to 1000 nM

CC[C@H](C)[C@@H]1NCCOCC=CCCNC(=O)[C@H](Cc2cccc(Cl)c2)NC(=O)C2(CCCC2)NC1=O [compound 360]
Ki [1, 3]: 100 to 1000 nM

CCC(C)C1NCCCc2ccccc2C=CCCNC(=O)C(Cc2cccc(Cl)c2)NC(=O)C2(CCCC2)NC1=O (stereo not shown) [compound 361]
Ki [1, 3]: 100 to 1000 nM

CC[C@H](C)[C@@H]1NCc2ccccc2CCCCCNC(=O)[C@H](Cc2cccc(Cl)c2)NC(=O)C2(CCCC2)NC1=O [compound 362]
Ki [1, 3]: 100 to 1000 nM

CC[C@H](C)[C@@H]1NCCCCCCNC(=O)[C@H](Cc2cccc(Cl)c2)NC(=O)C2(CCCC2)NC1=O [compound 365]
Ki [1, 3]: 100 to 1000 nM

CC[C@H](C)[C@@H]1NCCCCCCCNC(=O)[C@H](Cc2cccc(Cl)c2)NC(=O)C2(CCCC2)NC1=O [compound 366]
Ki [1, 3]: 100 to 1000 nM

CCC(C)C1NCCOCCCCCNC(=O)C(Cc2cccc(Cl)c2)NC(=O)C2(CCCC2)NC1=O (stereo not shown) [compound 370]
Ki [1, 3]: 100 to 1000 nM

CC[C@H](C)[C@@H]1NCCCc2ccccc2CCCCNC(=O)[C@H](Cc2cccc(Cl)c2)NC(=O)C2(CCCC2)NC1=O [compound 371]
Ki [1, 3]: 10 to 100 nM

C[C@@H]1C(=O)N[C@H](Cc2ccc(F)cc2)C(=O)NCCCc2cc(Cl)ccc2OCCN[C@@H](C2CC2)C(=O)N1C [compound 373]
Ki [1, 3]: 10 to 100 nM

CC1CCNC(=O)[C@@H](Cc2ccc(F)cc2)NC(=O)[C@@H](C)N(C)C(=O)[C@H](C2CC2)NCCOc2ccccc21 (stereo partly shown) [compound 375]
Ki [1, 3]: 100 to 1000 nM

CC1CNC(=O)[C@@H](Cc2ccc(F)cc2)NC(=O)[C@@H](C)N(C)C(=O)[C@H](C2CC2)NCCOc2ccccc2C1 (stereo partly shown) [compound 376]
Ki [1, 3]: 100 to 1000 nM

C[C@@H]1C(=O)N[C@H](Cc2ccc(F)cc2)C(=O)NCCC(C)(C)c2ccccc2OCCN[C@@H](C2CC2)C(=O)N1C [compound 378]
Ki [1, 3]: 100 to 1000 nM

CC1C(=O)NC(Cc2ccc(F)cc2)C(=O)NCC2CC2c2ccccc2OCCNC(C2CC2)C(=O)N1C (stereo not shown) [compound 379]
Ki [1, 3]: 10 to 100 nM

CC[C@H](C)[C@@H]1NCCOc2ccccc2/C=C\CNC(=O)[C@H](Cc2cccc(Cl)c2)NC(=O)C2(CCCC2)NC1=O [compound 380]
Ki [1, 3]: 100 to 1000 nM

CC[C@H](C)[C@@H]1NCCOc2ccccc2C#CCNC(=O)[C@H](Cc2cccc(Cl)c2)NC(=O)C2(CCCC2)NC1=O [compound 381]
Ki [1, 3]: 10 to 100 nM

CC[C@H](C)[C@@H]1NCCOc2cc(F)ccc2CCCNC(=O)[C@H](Cc2cccc(Cl)c2)NC(=O)C2(CCCC2)NC1=O [compound 383]
Ki [1, 3]: 100 to 1000 nM

CC[C@H](C)[C@@H]1NCCOc2ccc(Cl)cc2CCCNC(=O)[C@H](Cc2cccc(Cl)c2)NC(=O)C2(CCCC2)NC1=O [compound 384]
Ki [1, 3]: 100 to 1000 nM

CC[C@H](C)[C@@H]1NCCOc2cccnc2CCCNC(=O)[C@H](Cc2cccc(Cl)c2)NC(=O)C2(CCCC2)NC1=O [compound 385]
Ki [1, 3]: 100 to 1000 nM

CC[C@H](C)[C@@H]1NCCOc2ccccc2C(C)CCNC(=O)[C@H](Cc2cccc(Cl)c2)NC(=O)C2(CCCC2)NC1=O (stereo partly shown) [compound 386]
Ki [1, 3]: 100 to 1000 nM

CC[C@H](C)[C@@H]1NCCOc2ccccc2[C@@H]2C[C@@H]2CNC(=O)[C@H](Cc2cccc(Cl)c2)NC(=O)C2(CCCC2)NC1=O [compound 387]
Ki [1, 3]: 100 to 1000 nM

CC[C@H](C)[C@@H]1NCCCNCCNC(=O)[C@H](Cc2cccc(Cl)c2)NC(=O)C2(CCCC2)NC1=O [compound 390]
Ki [1, 3]: 100 to 1000 nM

C[C@@H]1C(=O)N[C@H](Cc2cc(F)c(F)c(F)c2)C(=O)NCCCc2ccccc2OCCN[C@@H](C2CC2)C(=O)N1C [compound 391]
Ki [1, 3]: 0.1 to 10 nM

CC[C@H](C)[C@@H]1NCCOc2ccccc2CC(C)CNC(=O)[C@H](Cc2cccc(Cl)c2)NC(=O)C2(CCCC2)NC1=O (stereo partly shown) [compound 392]
Ki [1, 3]: 10 to 100 nM

CC[C@H](C)[C@@H]1NCCOCCOCCNC(=O)[C@H](Cc2cccc(Cl)c2)NC(=O)C2(CCCC2)NC1=O [compound 393]
Ki [1, 3]: 100 to 1000 nM

C[C@@H]1C(=O)N[C@H](Cc2cccc(Cl)c2)C(=O)NC/C=C/c2ccccc2OCCNC2(CCCC2)C(=O)N1C [compound 396]
Ki ([1]; Table 3C): 10 to 100 nM

C[C@H]1C(=O)N[C@H](Cc2cccc(Cl)c2)C(=O)NC/C=C/c2ccccc2OCCNC2(CCCC2)C(=O)N1C [compound 397]
Ki ([1]; Table 3C): 100 to 1000 nM

C[C@@H]1C(=O)N[C@H](Cc2ccc(F)cc2)C(=O)NCCCCCOCCN[C@@H](C2CC2)C(=O)N1C [compound 398]
Ki [1, 3]: 100 to 1000 nM

C[C@@H]1C(=O)N[C@H](Cc2ccc(F)cc2)C(=O)NC/C=C\c2ccccc2OCCN[C@@H](C2CC2)C(=O)N1C [compound 400]
Ki [1, 3]: 10 to 100 nM

CC(C)C[C@@H]1NC[C@@H](C)Oc2ccccc2CCCNC(=O)[C@H](Cc2cccc(Cl)c2)NC(=O)C2(CCCC2)NC1=O [compound 438]
Ki ([1]; Table 3D): 1000 to 10000 nM

CC[C@H](C)[C@@H]1NCCOc2ccccc2CCCNC(=O)[C@@H](Cc2ccc(F)cc2)NC(=O)[C@@H](COCc2ccccc2)N(C)C1=O [compound 440]
Ki ([1]; Table 3D): 100 to 1000 nM

CCCC1NCCOc2ccccc2CCCNC(=O)C(C(C)c2ccccc2)NC(=O)CN(C)C1=O (stereo not shown) [compound 448]
Ki ([1]; Table 3D): 1000 to 10000 nM

CC[C@H](C)[C@@H]1NCCOc2ncccc2CCCNC(=O)[C@H](Cc2cccc(Cl)c2)NC(=O)C2(CCCC2)NC1=O [compound 449]
Ki ([1]; Table 3D): 1000 to 10000 nM
